Test results reported in BindingDB's records for doi:10.1016/s0960-894x(99)00425-4 (Merck Research Laboratorie, 1999).

Molecular target: Beta-lactamase CcrA (Bacteroides fragilis)
Assay: Inhibitory activity against CCRA (Bacteroides fragilis) metallo-beta-lactamase

Structure (SMILES)	IC50
C[C@@H](NC(=O)c1ccccc1)C(=O)SCC(=O)O [(R)-2-(2-benzamidopropanoylthio)acetic acid]	> 1 mM
CC(=O)N[C@H](C)C(=O)S[C@H](Cc1ccc(-c2ccccc2)cc1)C(=O)O [(R)-2-((R)-2-Acetylamino-propionylsulfanyl)-3-biphenyl-4-yl-propionic acid]	1 mM
CC(=O)N[C@H](C)C(=O)S[C@H](Cc1ccccc1)C(=O)O [(R)-2-((R)-2-Acetylamino-propionylsulfanyl)-3-phenyl-propionic acid]	> 1 mM
C=CCOC(=O)N[C@H](C)C(=O)S[C@H](Cc1ccc2oc3ccccc3c2c1)C(=O)O [(R)-2-((R)-2-Allyloxycarbonylamino-propionylsulfanyl)-3-dibenzofuran-2-yl-propionic acid]	> 1.5 mM
C[C@@H](NC(=O)c1ccccc1)C(=O)S[C@H](Cc1ccc(-c2ccccc2)cc1)C(=O)O [(R)-2-((R)-2-Benzoylamino-propionylsulfanyl)-3-biphenyl-4-yl-propionic acid]	1 mM
C[C@@H](NC(=O)c1ccccc1)C(=O)S[C@H](Cc1ccc2oc3ccccc3c2c1)C(=O)O [(R)-2-((R)-2-Benzoylamino-propionylsulfanyl)-3-dibenzofuran-2-yl-propionic acid]	0.68 mM
CC(=O)S[C@H](Cc1ccc(-c2ccccc2)cc1)C(=O)O [(R)-2-Acetylsulfanyl-3-biphenyl-4-yl-propionic acid]	0.75 mM
CC(=O)S[C@H](Cc1ccc2oc3ccccc3c2c1)C(=O)O [(R)-2-Acetylsulfanyl-3-dibenzofuran-2-yl-propionic acid]	> 0.5 mM
CC(=O)S[C@H](Cc1ccccc1)C(=O)O [(R)-2-Acetylsulfanyl-3-phenyl-propionic acid]	> 1 mM
O=C(S[C@H](Cc1ccccc1)C(=O)O)c1ccccc1 [(R)-2-Benzoylsulfanyl-3-phenyl-propionic acid]	> 1 mM
CC(C)C(=O)N[C@H](C)C(=O)S[C@H](Cc1ccc(-c2ccccc2)cc1)C(=O)O [(R)-3-Biphenyl-4-yl-2-((R)-2-isobutyrylamino-propionylsulfanyl)-propionic acid]	> 1.5 mM
C[C@@H](NC(=O)Cc1ccccc1)C(=O)S[C@H](Cc1ccc(-c2ccccc2)cc1)C(=O)O [(R)-3-Biphenyl-4-yl-2-((R)-2-phenylacetylamino-propionylsulfanyl)-propionic acid]	> 1.5 mM
CCC(=O)N[C@H](C)C(=O)S[C@H](Cc1ccc(-c2ccccc2)cc1)C(=O)O [(R)-3-Biphenyl-4-yl-2-((R)-2-propionylamino-propionylsulfanyl)-propionic acid]	> 1.5 mM
C[C@@H](NC(=O)Cc1cccc2ccccc12)C(=O)S[C@H](Cc1ccc(-c2ccccc2)cc1)C(=O)O [(R)-3-Biphenyl-4-yl-2-[(R)-2-(2-naphthalen-1-yl-acetylamino)-propionylsulfanyl]-propionic acid]	> 1.5 mM
C[C@@H](NC(=O)COc1ccccc1)C(=O)S[C@H](Cc1ccc(-c2ccccc2)cc1)C(=O)O [(R)-3-Biphenyl-4-yl-2-[(R)-2-(2-phenoxy-acetylamino)-propionylsulfanyl]-propionic acid]	0.93 mM
O=C(O)[C@H](S)Cc1ccc(-c2ccccc2)cc1 [(R)-3-Biphenyl-4-yl-2-mercapto-propionic acid]	0.75 mM
O=C(O)[C@H](S)Cc1ccc2oc3ccccc3c2c1 [(R)-3-Dibenzofuran-2-yl-2-mercapto-propionic acid]	0.0099 mM
C[C@@H](NC(=O)CCC(=O)O)C(=O)S[C@H](Cc1ccc(-c2ccccc2)cc1)C(=O)O [N-[(R)-1-((R)-2-Biphenyl-4-yl-1-carboxy-ethylsulfanylcarbonyl)-ethyl]-succinamic acid]	> 1.5 mM
